Source: patent US20240156965A1, “DICHALCOGENIDE PRODRUGS” (Ludwig-Maximilians-Universitat Munchen, priority 2021, published 2024)
“Also recorded” adds a separate entry of the source.

Legend:
[1] = Challenge with monothiol reductant GSH, cell-free fluorogenic cargo release; assay type: physicochemical; settings: 10 μM probe; for sensitivity to GSH in GSH titration, signal F/F^TCEP: 3 h timepoint, GSH up to 10 mM; for resistance to GSH-triggered release of fluorescent cargo PQ-OH (timecourse): supraphysiological GSH 10 mM, TE buffer pH 7.4, 37 °C; for cargo release when challenged with GSH / GSH system reductants: relevant cellular levels
Description: (§1) This cell-free assay examined the stability of dichalcogenide-based reduction-triggered compounds of the invention when exposed to cellular monothiol reductant GSH, and its cellular partner reductants glutathione reductase (GR) and glutaredoxins (Grx1 and Grx2).
(§2) Assay Conditions: A black 96-well plate with black bottom was charged with solutions of fluorophore-releasing reduction-triggered probes that are compounds of the invention (P1, P2, P3, P6 and P7) or that are not compounds of the invention and reveal the performance of prior art systems (disulfide X26), reaching 100 μL final volume, 1% final DMSO, 10 μM probe, aq. TE buffer (pH 7.4), with the indicated concentrations of reductant (in FIG. 1a) or concentration ratios of reductant to probe (in FIG. 1b-d). TCEP (100 μM) was used as a quantitative reference reductant; and in the GR/GSH/Grx assays (FIG. 1c-d), GR was used at 20 nM, GSH at 100 μM, to maintain Grx in a reduced state suitable for challenging the probes without supplying a high concentration of either GSH or GR. Reaction mixtures were incubated at 37° C. for up to 6 h while measuring fluorescence intensity F over time, using a BMG Labtech FLUOstar Omega platereader (λexc=355 nm, λem=530 nm).
(§3) Data Representation: F^TCEP is the maximum possible fluorescence increase, corresponding to complete reduction-triggered cargo release by the TCEP incubation. F/F^TCEP thus gives the fluorescence intensity, as a fraction of the maximum possible fluorescence signal, at the indicated times.

TrxR1 = biological target: T1, TrxR1 (Homo sapiens, UniProt Q16881); assay: Cellular quantitative HTS for TrxR1 inhibitors using P6 (LOPAC1280); assay type: cell-based; settings: for pIC50 comparison between BAY 11-7085 and BAY 11-7082: despite ca. 1.1 Log P difference; for activity / hit status in cellular P6 screen: hits classed up to 20 μM
T1 construct: endogenous in cells
T1 sequence (Q16881 151-649 limits assumed): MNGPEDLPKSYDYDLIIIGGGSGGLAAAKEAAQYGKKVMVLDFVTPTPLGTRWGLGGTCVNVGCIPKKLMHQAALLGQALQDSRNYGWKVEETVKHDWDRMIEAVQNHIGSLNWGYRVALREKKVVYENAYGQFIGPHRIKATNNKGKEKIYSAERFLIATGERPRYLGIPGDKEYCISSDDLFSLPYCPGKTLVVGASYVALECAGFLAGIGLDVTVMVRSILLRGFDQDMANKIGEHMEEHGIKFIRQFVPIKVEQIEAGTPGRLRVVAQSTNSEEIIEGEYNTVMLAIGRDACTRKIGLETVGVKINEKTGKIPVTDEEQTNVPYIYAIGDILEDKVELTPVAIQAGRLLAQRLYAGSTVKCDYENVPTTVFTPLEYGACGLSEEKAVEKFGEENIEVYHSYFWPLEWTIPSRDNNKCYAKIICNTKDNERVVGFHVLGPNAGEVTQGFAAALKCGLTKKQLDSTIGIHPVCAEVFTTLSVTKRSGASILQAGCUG
Description: The stability and constant environment of P6's signal (crystallising fluorophore, protected from interferences), its low background (ESIPT quenched probe) and low crosstalk (high Stokes shift), and its ability to directly generate a readout, were promising features. We therefore set out to develop the first cellular quantitative HTS (qHTS) assay for TrxR1 inhibitors, using P6, and performing pilot screening with the 1280-compound LOPAC1280 library. LOPAC is intended to cover drugs and drug-like scaffolds with much comparative data on target selectivity, potency, cellular and in vivo bioactivity, without focus on any particular mechanism of action. The LOPAC library was used in the only previously reported qHTS enzymatic TrxR assay (in 2011), and there is 82% overlap in composition between the 2011 and 2021 version (Prast-Nielsen, S. et al., Free Radical Biology and Medicine 50, 1114-1123 (2011)).
Cellular screening using P6, optimized for HTS with 1536-well plates (assay volume 6 μL, 500 cells/well) over 4 h run-time, reproduced the strong performance seen in 96-well format. Untreated vs no-cell controls gave a 7-fold raw signal to background ratio [S:B] without background compensation, with a high Z′ value of 0.64, suitable for HTS (FIG. 5a). P6 signal was linear over the assay time, and linearly reflected turnover rate (varied P6 concentration or cell count; FIG. 5b). Pre-incubating cells for 1 h with reference inhibitors prior to P6 gave concentration-dependent inhibition consistent with reported values (FIG. 5c).
A LOPAC1280 screen using this assay protocol performed well (Z′=0.63, S:B 7:1). Compounds with apparent toxicity within the assay time were excluded by a separate viability counter-assay. Moderate cut-off criteria (IC50<20 μM and curve form) gave a <1.5% hit rate (18 of 1278 compounds, plus TRi-1 and TRi-2; FIG. 5d). […] Matching expectations, with the exception of auranofin, none of these species approached the potency of TRi-1 (Stafford, W. C. et al., Sci. Transl. Med. 10, eaaf7444 (2018)).

TrxR [2] = biological target: T2, TrxR (Rattus norvegicus, UniProt O89049); settings: cited from earlier work
T2 sequence (O89049 1-499): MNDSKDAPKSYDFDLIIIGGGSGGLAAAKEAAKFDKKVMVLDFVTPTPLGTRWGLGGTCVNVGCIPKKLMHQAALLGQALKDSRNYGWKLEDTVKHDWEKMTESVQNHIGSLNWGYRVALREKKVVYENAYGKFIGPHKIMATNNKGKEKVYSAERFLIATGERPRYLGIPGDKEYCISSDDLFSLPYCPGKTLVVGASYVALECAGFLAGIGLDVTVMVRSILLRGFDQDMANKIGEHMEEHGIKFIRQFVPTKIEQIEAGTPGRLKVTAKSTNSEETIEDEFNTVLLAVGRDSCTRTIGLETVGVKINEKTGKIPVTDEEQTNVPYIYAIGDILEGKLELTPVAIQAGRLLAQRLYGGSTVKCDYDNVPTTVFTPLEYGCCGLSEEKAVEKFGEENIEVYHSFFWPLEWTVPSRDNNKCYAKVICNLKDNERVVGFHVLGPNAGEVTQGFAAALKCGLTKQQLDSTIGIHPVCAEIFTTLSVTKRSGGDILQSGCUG

[3] = tested on: glutaredoxins (Grx1 and Grx2) with GR and GSH; assay: Challenge with GR/GSH/Grx system reductants, cell-free; assay type: biochemical; settings: 10 μM probe, GR 20 nM, GSH 100 μM, Grx1 or Grx2 up to physiological concentrations
Description: as §1, §2, §3

[4] = tested on: HeLa cervical cancer cell line; assay: Cellular reduction assay in HeLa cells (fluorescence timecourse); assay type: cell-based, human; settings: time- and dose-dependence
Experimental: Assay Conditions: Cells were cultured under standard conditions (Gao, L. et al. Cell Chemical Biology 2021, 28, 1-14. https://doi.org/10.1016/j.chembiol.2020.11.007), left to adhere for 24 h, then compounds were added to 100 μM with 1% vol DMSO. Fluorescence timecourse measurements were acquired as in the chemoreductant assay, with all conditions in triplicates.
Data Representation: F.I.(t) is the fluorescence intensity signal increase as compared to time zero signal (fluorescence intensity immediately following compound addition, before probe activation could occur), in arbitrary units although with the same detection settings for all probes releasing the same cargo. This corresponds to reduction-triggered cargo release.

[5] = biological target: T3, human recombinant thioredoxin reductase 1 (TrxR1) (Homo sapiens, UniProt Q16881); assay: Enzymatic activation assay with TrxR1, cell-free; assay type: biochemical; settings: 10 μM probe, 20 nM TrxR1, 100 μM NADPH, 37 °C
T3 sequence (Q16881 1-499 isoform Q16881-5): T1 sequence (Q16881 151-649 limits assumed)
Experimental: This cell-free assay (see FIG. 2) examined the processing of dichalcogenide-based fluorophore-releasing reduction-triggered probes that are compounds of the invention, by components of the cellular thioredoxin system.
Assay conditions and data representation: A black 96-well plate with black bottom was charged with solutions of probes (P1, P2, P3, P6, P7) to reach final reaction conditions: 100 μL of aq. TE buffer (pH 7.4), 10 μM probe concentration, 1 vol % DMSO, and 20 nM of human recombinant thioredoxin reductase 1 (TrxR1; in FIG. 1a), or 20 nM of either TrxR1 or thioredoxin reductase Sec498Cys mutant (TrxR1 U498C or “mut”; in FIG. 1b), or the indicated probe-to-reductant concentration ratios of TrxR1 (in FIG. 1c) or human recombinant thioredoxin 1 (Trx1; in FIG. 1d); with the final step being the addition of NADPH (100 μM final). The reaction mixtures were incubated at 37° C. for 3 to 6 h as shown with timecourse measurements of fluorescence as for FIG. 1. Data representation as for FIG. 1.

TrxR [6] = settings: cell-free; cited from earlier work

## CN(C(=O)Oc1ccc(Cl)cc1-c1nc2ccc(Cl)cc2c(=O)[nH]1)C1CCS[Se]C1 (stereo not drawn) [P1]
[1]
  sensitivity to GSH in GSH titration, signal F/F^TCEP: completely insensitive
  resistance to GSH-triggered release of fluorescent cargo PQ-OH (timecourse): entirely
  cargo release when challenged with GSH / GSH system reductants: totally resisted releasing cargo

## OC[C@H]1O[C@H]([S-])[C@H](O)[C@@H](O)[C@@H]1O.[Au+] [aurothioglucose]
TrxR1; relative to ester prodrug auranofin
  pIC50/potency lower than auranofin: 10 fold

## CC(C)(C)c1ccc(S(=O)(=O)/C=C/C#N)cc1 [BAY 11-7085]
TrxR1
  pIC50 comparison between BAY 11-7085 and BAY 11-7082: no change

## CN(N=O)c1cc(O)ccc1O [Dephostatin]
TrxR1; shared hits of cellular and cell-free qHTS
  ratio of cell-free to cellular potency (potency loss in cells): > 10 fold

## C=CCN1CCc2c(cc(O)c(O)c2Cl)C(c2ccccc2)C1 (stereo not drawn) [chloro-APB]
TrxR1
  activity / hit status in cellular P6 screen: active in the cellular screen
TrxR [2]
  activity in enzymatic (cell-free) TrxR screen: inactivity in the enzymatic assay

## CN(C(=O)Oc1ccc(Cl)cc1-c1nc2ccc(Cl)cc2c(=O)[nH]1)C1CC[Se]SC1 (stereo not drawn) [P2]
[1]
  sensitivity to GSH in GSH titration, signal F/F^TCEP: very low sensitivity
  resistance to GSH-triggered release of fluorescent cargo PQ-OH (timecourse): majorly
  cargo release when challenged with GSH / GSH system reductants: high resistance to GSH challenge
[3]
  triggering by GR/GSH/Grx systems: total resistance to Grx challenge

## CN1CCN(C(=O)CCN(C(=O)Oc2ccc(Cl)cc2-c2nc3ccc(Cl)cc3c(=O)[nH]2)C2CCCCC2)CC1 [X28, reference compound]
[4]
  fluorescence signal generation F.I.(t) in HeLa cells: does not generate signal; also recorded: did not generate signal

## NC1(C(=O)O)CCc2cc(C(=O)O)ccc21 (stereo not drawn) [AIDA]
TrxR1
  activity / hit status in cellular P6 screen: non-obvious hit

## CN(C(=O)Oc1ccc(Cl)cc1-c1nc2ccc(Cl)cc2c(=O)[nH]1)C1CC[Se][Se]C1 (stereo not drawn) [P3]
[5]
  cargo release on exposure to TrxR1 (timecourse): stable to this challenge; also recorded: nonresponsive to TrxR
[1]
  sensitivity to GSH in GSH titration, signal F/F^TCEP: completely insensitive
  resistance to GSH-triggered release of fluorescent cargo PQ-OH (timecourse): entirely
  cargo release when challenged with GSH / GSH system reductants: totally resisted releasing cargo

## Cc1ccc(S(=O)(=O)/C=C/C#N)cc1 [BAY 11-7082]
TrxR1
  pIC50 comparison between BAY 11-7085 and BAY 11-7082: no change

## COC[C@H]1OC(=O)c2coc3c2[C@@]1(C)C1=C(C3=O)[C@@H]2CCC(=O)[C@@]2(C)C[C@H]1OC(C)=O [wortmannin]
TrxR [2]
  activity in enzymatic (cell-free) TrxR screen: activity in the enzymatic screen

## Oc1ccc2ccccc2c1SSc1c(O)ccc2ccccc12 [IPA-3]
TrxR1
  activity / hit status in cellular P6 screen: active in the cellular screen
TrxR [2]
  activity in enzymatic (cell-free) TrxR screen: inactivity in the enzymatic assay

## OC1C[Se][Se]CC1O (stereo not drawn) [E3]
TrxR [6]
  reduction by TrxR in vitro: processed by TrxR

## NC1CC[Se][Se]C1 (stereo not drawn) [E4]
TrxR [6]
  reduction by TrxR in vitro: resistant to TrxR
